What was measured:
[1] = test system: Septoria tritici; test: Fungicidal action on pathogens, growth in medium analyzed at 405 nm (Example 3); assay type: cell-based; settings: 2% malt medium, 125 ppm, 18° C., seven days
Experimental: Various pathogens were tested under respective test mediums and concentrations of UV filters (see Table 2). The pathogens were incubated at a temperature of 18° C. for seven days. The growth of the pathogens was compared to an untreated sample. Table 2 lists the growth compared to the untreated sample, which corresponds to 100%. The growth was analyzed at 405 nm.

[2] = test system: Ramularia collo-cygni; test: Preventive action on winter barley against Ramularia collo-cygni, field trial (Example 2); assay type: in vivo; settings: barley variety Malwinta, natural infection, application at BBCH 49, evaluated 12 days after application, 0 = as untreated, 100 = not infected, UV Filter A 500 g ai/ha, Actives A & B 240 & 297 g ai/ha
Experimental: As active substance a mixture of active substances was used called “Actives A & B”, which was prepared by mixing Active A and Active B. Active A was a fungicidal suspension concentrate comprising 6 wt % epoxiconazol, 20.8 wt % boscalid, 11.2-12.6 wt % fatty alcohol alkoxylate, C8-alkyl glucoside, and phenolsulfonic acid-formaldehyde-polycondensate sodium salt (commercially available pesticide formulation from BASF SE as Champion®). Active B a fungicidal suspoemulsion comprising 20.6 wt % fenpropimorph, 11 wt % pyraclostrobin, 4.1 wt % epoxiconazol, 20.5 wt % solvent naphtha, 11 wt % fatty alcohol ethoxylate and 4.8 wt % phenolsulfonic acid-formaldehyde-polycondensate sodium salt (commercially available pesticide formulation from BASF SE as Diamant®). UV Filter A was prepared as described in example 1.
The biological trial was conducted under field conditions. The barley variety Malwinta was planted and grown under standard conditions with adequate supply of water and nutrients. […] The disease incidences were evaluated 12 days after application.
The diseases were converted into efficacies. […] The expected efficacies of active compound mixtures were determined using Colby's formula [R. S. Colby, “Calculating synergistic and antagonistic responses of herbicide combinations”, Weeds 15, 20-22 (1967)] and compared with the observed efficacies.

[3] = test system: Phytophthora infestans; assay type: cell-based; settings: YPBG medium, 125 ppm, 18° C., seven days

## COCCOCCOCCOCCOCCOCCOCCOC(=O)C(C#N)=C(c1ccccc1)c1ccccc1 [UV Filter A, 2-Cyano-3,3-diphenyl-acrylsäure-[Pluriol A350E]-ester]
[1]
  Growth (%) relative to untreated sample: 40%
[2]
  Efficacy: 0
[3]
  Growth (%) relative to untreated sample: 78%

Reference: patent US8748347B2 (priority 2009, dated 2014)
